{"source": "paper PMC6950218", "about": "(Journal of Medicinal Chemistry, 2011)", "key": {"Caco-2": {"tested_on": "Caco-2", "conditions": "for Caco-2 A–B: apical to basolateral; for Caco-2 B–A: basolateral to apical"}, "Huh7": {"tested_on": "Huh7", "assay": "Cytotoxicity Huh7", "assay_type": "cell-based"}, "Ba/F3": {"tested_on": "Ba/F3", "assay": "Cytotoxicity Ba/F3", "assay_type": "cell-based"}, "CHO": {"tested_on": "CHO", "assay": "Cytotoxicity CHO", "assay_type": "cell-based"}, "HEp2": {"tested_on": "HEp2", "assay": "Cytotoxicity HEp2", "assay_type": "cell-based"}, "HeLa": {"tested_on": "HeLa", "assay": "Cytotoxicity HeLa", "assay_type": "cell-based"}, "[1]": {"assay": "Maximum tolerable dose test in rats", "conditions": "rats in vivo"}, "P. falciparum strain 3D7": {"tested_on": "P. falciparum strain 3D7", "assay": "Antimalarial proliferation inhibition assay", "assay_type": "cell-based, Plasmodium falciparum", "conditions": "for IC50: mean of at least two experiments"}, "P. falciparum strain W2": {"tested_on": "P. falciparum strain W2", "assay": "Antimalarial proliferation inhibition assay", "assay_type": "cell-based, Plasmodium falciparum", "conditions": "mean of at least two experiments"}, "[2]": {"assay": "not given", "remark": "listed apart in the source"}, "[3]": {"assay": "not given", "remark": "listed apart in the source"}, "[4]": {"assay": "not given", "remark": "listed apart in the source"}, "[5]": {"conditions": "Plasmodium falciparum, 3D7, read-out: P. falciparum strain IC50 3D7, resynthesized powders (data in brackets)"}, "[6]": {"conditions": "Plasmodium falciparum, W2, read-out: P. falciparum strain IC50 W2, resynthesized powders (data in brackets)"}, "[7]": {"conditions": "resynthesized powders (data in brackets)"}}, "note": "Where two headings read alike, the source gives them in different places."}
{"compound": "CC(C)(N)C(=O)N1CCn2c(nc(-c3ccc(F)cc3)c2Nc2ccc(Cl)c(F)c2)C1", "note": "[Compound 32, 2-Amino-1-(3-(4-chloro-3-fluorophenylamino)-2-(4-fluorophenyl)-5,6-dihydroimidazo[1,2-a]pyrazin-7(8H)-yl)-2-methylpropan-1-one]", "values": [{"measurement": "PAMPA (% absorbed)", "result": 94, "unit": "% absorbed"}, {"measurement": "Caco-2 A–B", "setting": "Caco-2", "result": 0.84, "unit": "cm/s × 10^6"}, {"measurement": "Caco-2 B–A", "setting": "Caco-2", "result": 0.87, "unit": "cm/s × 10^6"}]}
{"compound": "CC(C)(N)C(=O)N1CCn2c(nc(-c3ccc(F)cc3)c2Nc2ccc(Cl)cc2)C1", "note": "[Compound 28, 2-Amino-1-(3-(4-chlorophenylamino)-2-(4-fluorophenyl)-5,6-dihydroimidazo[1,2-a]pyrazin-7(8H)-yl)-2-methylpropan-1-one]", "values": [{"measurement": "PAMPA (% absorbed)", "result": 89, "unit": "% absorbed"}, {"measurement": "Caco-2 A–B", "setting": "Caco-2", "result": 1.46, "unit": "cm/s × 10^6"}, {"measurement": "Caco-2 B–A", "setting": "Caco-2", "result": 1.86, "unit": "cm/s × 10^6"}]}
{"compound": "CC(C)(N)C(=O)N1CCn2c(nc(-c3ccc(F)cc3)c2Nc2ccc(F)c(F)c2)C1", "note": "[Compound 30, 2-Amino-1-(3-(3,4-difluorophenylamino)-2-(4-fluorophenyl)-5,6-dihydroimidazo[1,2-a]pyrazin-7(8H)-yl)-2-methylpropan-1-one]", "values": [{"measurement": "cytotoxicity TC50 Huh7", "setting": "Huh7", "result": "greater than 12 μM"}, {"measurement": "cytotoxicity TC50 Ba/F3", "setting": "Ba/F3", "result": "greater than 12 μM"}, {"measurement": "cytotoxicity TC50 CHO", "setting": "CHO", "result": "greater than 12 μM"}, {"measurement": "cytotoxicity TC50 HEp2", "setting": "HEp2", "result": "greater than 12 μM"}, {"measurement": "cytotoxicity TC50 HeLa", "setting": "HeLa", "result": "greater than 12 μM"}, {"measurement": "mini-Ames test", "setting": "mini-Ames test", "result": "negative"}, {"measurement": "micronucleus test", "setting": "Micronucleus test", "result": "negative"}, {"measurement": "PAMPA (% absorbed)", "result": 86, "unit": "% absorbed"}, {"measurement": "Caco-2 A–B", "setting": "Caco-2", "result": 0.14, "unit": "cm/s × 10^6"}, {"measurement": "Caco-2 B–A", "setting": "Caco-2", "result": 1.03, "unit": "cm/s × 10^6"}]}
{"compound": "CC(C)(N)C(=O)N1CCn2c(nc(-c3ccc(F)cc3)c2Nc2ccc(F)cc2)C1", "note": "[Compound 11, 2-Amino-1-(2-(4-fluorophenyl)-3-(4-fluorophenylamino)-5,6-dihydroimidazo[1,2-a]pyrazin-7(8H)-yl)-2-methylpropan-1-one]", "values": [{"measurement": "cytotoxicity TC50 Huh7", "setting": "Huh7", "result": "greater than 12 μM"}, {"measurement": "cytotoxicity TC50 CHO", "setting": "CHO", "result": "greater than 12 μM"}, {"measurement": "cytotoxicity TC50 HEp2", "setting": "HEp2", "result": "greater than 12 μM"}, {"measurement": "cytotoxicity TC50 HeLa", "setting": "HeLa", "result": "greater than 12 μM"}, {"measurement": "maximum tolerable dose test", "setting": "[1]", "result": "no gross effects at doses up to 500 mg/kg"}, {"measurement": "PAMPA (% absorbed)", "result": 81, "unit": "% absorbed"}, {"measurement": "Caco-2 A–B", "setting": "Caco-2", "result": 3.05, "unit": "cm/s × 10^6"}, {"measurement": "Caco-2 B–A", "setting": "Caco-2", "result": 8.38, "unit": "cm/s × 10^6"}]}
{"compound": "CC(C)CC(N)C(=O)N1CCn2c(nc(-c3ccccc3)c2Nc2ccc3c(c2)OCO3)C1", "note": "(stereo not drawn) [Compound 1c, 2-Amino-1-(3-(benzo[d][1,3]dioxol-5-ylamino)-2-phenyl-5,6-dihydroimidazo[1,2-a]pyrazin-7(8H)-yl)-4-methylpentan-1-one]", "values": [{"measurement": "IC50", "setting": "P. falciparum strain 3D7; [5]", "result": 30, "unit": "nM"}, {"measurement": "IC50", "setting": "P. falciparum strain W2; [6]", "result": 29, "unit": "nM"}, {"measurement": "cyotoxicity Huh7", "setting": "Huh7; HTS DMSO stock solutions", "result": "> 10", "unit": "µM"}, {"measurement": "cyotoxicity Huh7", "setting": "Huh7; [7]", "result": 42, "unit": "µM"}]}
{"compound": "NCC(=O)N1CCn2c(nc(-c3ccc(F)cc3)c2Nc2ccc(Cl)cc2)C1", "note": "[Compound 27, 2-Amino-1-(3-(4-chlorophenylamino)-2-(4-fluorophenyl)-5,6-dihydroimidazo[1,2-a]pyrazin-7(8H)-yl)ethanone]", "values": [{"measurement": "PAMPA (% absorbed)", "result": 52, "unit": "% absorbed"}, {"measurement": "Caco-2 A–B", "setting": "Caco-2", "result": 0.44, "unit": "cm/s × 10^6"}, {"measurement": "Caco-2 B–A", "setting": "Caco-2", "result": 1.25, "unit": "cm/s × 10^6"}]}
{"compound": "NC(Cc1ccccc1)C(=O)N1CCn2c(nc(-c3ccccc3)c2Nc2ccc3c(c2)OCO3)C1", "note": "(stereo not drawn) [Compound 1b, 2-Amino-1-(3-(benzo[d][1,3]dioxol-5-ylamino)-2-phenyl-5,6-dihydroimidazo[1,2-a]pyrazin-7(8H)-yl)-3-phenylpropan-1-one]", "values": [{"measurement": "IC50", "setting": "P. falciparum strain 3D7; [5]", "result": 119, "unit": "nM"}, {"measurement": "IC50", "setting": "P. falciparum strain W2; [6]", "result": 122, "unit": "nM"}, {"measurement": "cyotoxicity Huh7", "setting": "Huh7; HTS DMSO stock solutions", "result": "> 10", "unit": "µM"}, {"measurement": "cyotoxicity Huh7", "setting": "Huh7; [7]", "result": "> 79", "unit": "µM"}]}
{"compound": "NCC(=O)N1CCn2c(nc(-c3cccc(F)c3)c2Nc2ccc(F)cc2)C1", "note": "[Compound 18, 2-Amino-1-(3-((4-fluorophenyl)amino)-2-(3-fluorophenyl)-5,6-dihydroimidazo[1,2-a]pyrazin-7(8H)-yl)ethanone]", "values": [{"measurement": "PAMPA (% absorbed)", "result": "low"}, {"measurement": "Caco-2 A–B", "setting": "Caco-2", "result": 0.56, "unit": "cm/s × 10^6"}, {"measurement": "Caco-2 B–A", "setting": "Caco-2", "result": 2.32, "unit": "cm/s × 10^6"}]}
{"compound": "3-Amino-1-(2-(4-fluorophenyl)-3-(4-fluorophenylamino)-5,6-dihydroimidazo[1,2-a]pyrazin-7(8H)-yl)propan-1-one [Compound 29]", "values": [{"measurement": "IC50", "setting": "P. falciparum strain 3D7; read-out: P. falciparum strain IC50 3D7", "result": 30, "unit": "nM"}, {"measurement": "IC50", "setting": "P. falciparum strain W2; read-out: P. falciparum strain IC50 W2", "result": 23, "unit": "nM"}, {"measurement": "PAMPA (% absorbed)", "result": "low"}, {"measurement": "Caco-2 A–B", "setting": "Caco-2", "result": 0.99, "unit": "cm/s × 10^6"}, {"measurement": "Caco-2 B–A", "setting": "Caco-2", "result": 2.99, "unit": "cm/s × 10^6"}, {"measurement": "hepatic microsome metabolic stability (extraction ratio) mouse", "setting": "[2]", "result": 0.21}, {"measurement": "hepatic microsome metabolic stability (extraction ratio) rat", "setting": "[3]", "result": 0.38}, {"measurement": "hepatic microsome metabolic stability (extraction ratio) human", "setting": "[4]", "result": 0.21}]}
{"compound": "NCC(=O)N1CCn2c(nc(-c3ccc(F)cc3)c2Nc2ccc(F)cc2)C1", "note": "[Compound 5, 2-Amino-1-(2-(4-fluorophenyl)-3-(4-fluorophenylamino)-5,6-dihydroimidazo[1,2-a]pyrazin-7(8H)-yl)ethanone]", "values": [{"measurement": "fold more potent than the original hit compound 1a", "setting": "P. falciparum strain 3D7", "result": 4, "unit": "fold"}, {"measurement": "PAMPA (% absorbed)", "result": 52, "unit": "% absorbed"}, {"measurement": "Caco-2 A–B", "setting": "Caco-2", "result": 0.70, "unit": "cm/s × 10^6"}, {"measurement": "Caco-2 B–A", "setting": "Caco-2", "result": 2.55, "unit": "cm/s × 10^6"}]}
{"compound": "NCC(=O)N1CCn2c(nc(-c3ccccc3)c2Nc2ccc3c(c2)OCO3)C1", "note": "[Compound 1a, 2-Amino-1-(3-(benzo[d][1,3]dioxol-5-ylamino)-2-phenyl-5,6-dihydroimidazo[1,2-a]pyrazin-7(8H)-yl)ethanone]", "values": [{"measurement": "IC50", "setting": "P. falciparum strain 3D7; [5]", "result": 460, "unit": "nM"}, {"measurement": "IC50", "setting": "P. falciparum strain W2; [6]", "result": 473, "unit": "nM"}, {"measurement": "cyotoxicity Huh7", "setting": "Huh7; HTS DMSO stock solutions", "result": "> 10", "unit": "µM"}, {"measurement": "cyotoxicity Huh7", "setting": "Huh7; [7]", "result": "> 100", "unit": "µM"}]}
